≈ marks a conversion by molar mass, not a printed value.
Assays:
[1] = system: HepG-2; parameters: method as in PMID 19424633, PMID 27176768, PMID 26847170, PMID 20183323; conditions: HepG-2, 24 h treatment; ref [10],[13],[15],[47]; cited from earlier work
[2] = system: HCT-116 cells; experiment: NanoString nCounter gene expression profiling; type: cell-based, human
Procedure: Gene expressions of the cancer canonical pathways were measured by NanoString nCounter. HCT-116 cells were treated with Dis for 48 h and total RNA were extracted by using RNeasy Mini Kit (QiAgen, Hilden, Germany) according to the manufacture’s protocol. Concentrations of RNA were checked through NanoDrop 2000C (Thermo Scientific™, Pittsburgh, PA, USA). Pancancer pathways panel on Nanostring nCounter system (Nanostring Technologies, Inc., Seattle, WA, USA) were used to investigate the gene expression profile of cancer pathways. A total of 770 genes were investigated and compared between Dis treated and untreated cells. The list of investigated genes is provided as supplementary data (Table S1). RNA was hybridized, purified and immobilized before being aligned on the nCounter cartridge and introduced to nCounter.
Digital Analyzer was utilized for data collection according to the manufacturer’s instruction. Briefly, RNA samples were added to the master mix contain hybridization buffer and reporter CodeSet. Capture ProbeSet was added to this mixture and introduced to pre-heated 65 °C thermal cycler for 16 h incubation. After removing the unbound probe, target/probe were immobilized and aligned on the nCounter Cartridge. nCounter digital analyzer was used to collect the nCounter cartridge data and data were analyzed using nSolver 3.0 analysis software. Significant genes were choose based on the false discovery rate (FDR) <0.05 and log2 fold change ≥ ± 0.5 supplementary data (Figure S1).

[3] = system: HCT-116 cells; experiment: Human apoptosis protein array (proteome profiler); type: cell-based; conditions: vs control
Procedure: Apoptosis protein expression profiling was performed using human apoptosis array (R&D Systems, Minneapolis, MN, USA) according to the manufacturer’s protocol. In brief, 2 × 10^6 HCT-116 cells were seeded and treated with Dis in 75 cm^2 flask and incubated for 48 h. Cells were harvested and lysed via lysis buffer reagent and was quantified using Pierce BCA protein assay kit (Thermo Scientific™, Pittsburgh, PA, USA). The membrane provided was blocked in blocking solution reagent and treated overnight with cell lysates protein. The membrane was washed and subsequently incubated with detection antibody cocktail and streptavidin horseradish peroxidase-conjugated. Chemiluminescent reagents were added to the membrane and then exposed to X-ray film to detect the protein expression levels in treated cells as compared to untreated cells. Images were quantified via ImageJ software (NIH, USA). The list of investigated proteins is provided as supplementary data (Table S2).

[4] = system: Colo205; parameters: method as in PMID 19424633, PMID 27176768, PMID 26847170, PMID 20183323; conditions: Colo205, 24 h treatment; ref [10],[13],[15],[47]; cited from earlier work
[5] = system: HCT-116 cells; experiment: Multiple cytotoxicity assay (Cellomics multiparameter cytotoxicity 3 kit); type: cell-based, human; conditions: HCT-116, Dis 3.58 µg/ml
Procedure: Cellomics multiparameter cytotoxicity 3 kit (Thermo Scientific™, Pittsburgh, PA, USA) was used to investigate the vital apoptotic events in HCT-116 cells in the presence of Dis. Cytotoxicity 3 assay was used to provide information about the changes in nuclear morphology, cell membrane integrity, cytochrome C release and mitochondrial outer membrane permeabilization (MOMP). HCT-116 cells were seeded in 24 well-plate and covered by a cover slide followed by treatment with Dis for 24 h, 48 h and 72 h. Treated cells were stained with YoYo dye (life technology, CA, USA) and Mitotracker dye (life technology, CA, USA) followed by fixation and blocking procedures according to the manufacture’s protocol. Primary cytochrome C (Thermo Scientific™, Pittsburgh, PA, USA) antibody and secondary DyLight 650 (Thermo Scientific™, Pittsburgh, PA, USA) were added to each well and incubated for 1 h in the dark. Hoechst 33342 dye (Thermo Scientific™, Pittsburgh, PA, USA) was added in the last step to stain the nuclei of the cells. Cells were washed and cover slides were transferred on the slide and introduced to confocal Leica TCS SP5 II microscope (Leica Microsystems, Mannheim, Germany). Intensity of each dye was measured by using LAS X software.

COc1ccc(-c2cc(=O)c3c(O)cc(O)cc3o2)cc1O [Dis, Diosmetin]
IC50 [1]: 12 µg/mL (≈ 40 µM) | gene expression of NF-ƙB inhibitor (iƙb-α) ([2]; HCT-116, Dis treated): elevates | Log2 fold change, Fubp1 ([2]; gene Fubp1, HCT-116, Dis 48 h vs untreated): −0.5 | Log2 fold change, Prkar2b ([2]; gene Prkar2b, HCT-116, Dis 48 h vs untreated): −1.6 | Log2 fold change, bax ([2]; gene bax, HCT-116, Dis 48 h vs untreated): 0.5 | Log2 fold change, bmp8a ([2]; gene bmp8a, HCT-116, Dis 48 h vs untreated): −2.2 | Log2 fold change, ccna2 (cyclin A) ([2]; gene ccna2 (cyclin A), HCT-116, Dis 48 h vs untreated): −0.6 | Log2 fold change, ccnb1 (cyclin B) ([2]; gene ccnb1 (cyclin B), HCT-116, Dis 48 h vs untreated): −0.5 | Log2 fold change, cdc7 ([2]; gene cdc7, HCT-116, Dis 48 h vs untreated): −0.8 | Log2 fold change, cdc25 ([2]; gene cdc25, HCT-116, Dis 48 h vs untreated): −0.6 | Log2 fold change, cdkn1a (p21) ([2]; gene cdkn1a (p21), HCT-116, Dis 48 h vs untreated): 1.5 | Log2 fold change, fas ([2]; gene fas, HCT-116, Dis 48 h vs untreated): 0.8 | Log2 fold change, gadd45 ([2]; gene gadd45, HCT-116, Dis 48 h vs untreated): 0.8 | Log2 fold change, h2afx ([2]; gene h2afx, HCT-116, Dis 48 h vs untreated): −0.9 | Log2 fold change, h3f3a (h2a) ([2]; gene h3f3a (h2a), HCT-116, Dis 48 h vs untreated): −0.9 | Log2 fold change, hdac1 ([2]; gene hdac1, HCT-116, Dis 48 h vs untreated): −0.5 | Log2 fold change, hdac2 ([2]; gene hdac2, HCT-116, Dis 48 h vs untreated): −0.6 | Log2 fold change, hdac5 ([2]; gene hdac5, HCT-116, Dis 48 h vs untreated): −2.6 | Log2 fold change, hells ([2]; gene hells, HCT-116, Dis 48 h vs untreated): −0.6 | Log2 fold change, hist1h3b ([2]; gene hist1h3b, HCT-116, Dis 48 h vs untreated): −1.2 | Log2 fold change, hist1h3h ([2]; gene hist1h3h, HCT-116, Dis 48 h vs untreated): −1.5 | Log2 fold change, hspb1 (hsp27) ([2]; gene hspb1 (hsp27), HCT-116, Dis 48 h vs untreated): −2.2 | Log2 fold change, id1 ([2]; gene id1, HCT-116, Dis 48 h vs untreated): −0.5 | Log2 fold change, id2 ([2]; gene id2, HCT-116, Dis 48 h vs untreated): −2.0 | Log2 fold change, mad2l2 ([2]; gene mad2l2, HCT-116, Dis 48 h vs untreated): −0.6 | Log2 fold change, mcm2 ([2]; gene mcm2, HCT-116, Dis 48 h vs untreated): −0.6 | Log2 fold change, mcm4 ([2]; gene mcm4, HCT-116, Dis 48 h vs untreated): −0.6 | Log2 fold change, mcm7 ([2]; gene mcm7, HCT-116, Dis 48 h vs untreated): −0.6 | Log2 fold change, msh2 ([2]; gene msh2, HCT-116, Dis 48 h vs untreated): −0.7 | Log2 fold change, nbn ([2]; gene nbn, HCT-116, Dis 48 h vs untreated): −0.5 | Log2 fold change, pcna ([2]; gene pcna, HCT-116, Dis 48 h vs untreated): −0.6 | Log2 fold change, pole2 ([2]; gene pole2, HCT-116, Dis 48 h vs untreated): −1.4 | Log2 fold change, pttg2 ([2]; gene pttg2, HCT-116, Dis 48 h vs untreated): −0.9 | Log2 fold change, rad21 ([2]; gene rad21, HCT-116, Dis 48 h vs untreated): −0.8 | Log2 fold change, rbx1 ([2]; gene rbx1, HCT-116, Dis 48 h vs untreated): −1.2 | Log2 fold change, setd2 ([2]; gene setd2, HCT-116, Dis 48 h vs untreated): 0.7 | Log2 fold change, sfn (stratifin) ([2]; gene sfn (stratifin), HCT-116, Dis 48 h vs untreated): 0.6 | Log2 fold change, sin3 ([2]; gene sin3, HCT-116, Dis 48 h vs untreated): −0.5 | Log2 fold change, smad9 ([2]; gene smad9, HCT-116, Dis 48 h vs untreated): −2.7 | Log2 fold change, smc3 ([2]; gene smc3, HCT-116, Dis 48 h vs untreated): −0.7 | Log2 fold change, stmn1 ([2]; gene stmn1, HCT-116, Dis 48 h vs untreated): −1.5 | Log2 fold change, tnfrsf10b ([2]; gene tnfrsf10b, HCT-116, Dis 48 h vs untreated): 0.8 | Log2 fold change, ttk ([2]; gene ttk, HCT-116, Dis 48 h vs untreated): −1.0 | Log2 fold change, ubb ([2]; gene ubb, HCT-116, Dis 48 h vs untreated): −0.9 | Protein expression of caspase 3 cleavage, fold change ([3]; HCT-116, 3.58 µg/ml Dis, 48 h): 2.61 | Protein expression of pro-caspase 3, fold change ([3]; HCT-116, 3.58 µg/ml Dis, 48 h): 0.75 | Hsp27 expression, gene and protein levels ([3]; HCT-116, 48 h): significantly decreased | expression of FADD ([3]; HCT-116, 48 h): significantly increased | protein expression level of Bax ([3]; HCT-116, 48 h): accelerated | protein expression level of Cytochrome C ([3]; HCT-116, 48 h): accelerated | protein expression of Survivin ([3]; HCT-116, 48 h): significantly decreased | IC50 [4]: 29 µg/mL (≈ 96.6 µM) | Cytochrome C release [5]: releases of Cytochrome C from mitochondria to cytosol | mitochondrial membrane potential ([5]; Mitotracker uptake): losses of the mitochondrial membrane potential | cell permeability ([5]; YoYo dye): increases
